Assay [1] addresses Prostaglandin G/H synthase 1 (Homo sapiens, UniProt P23219). Format: tissue-based, Blood.
Description: In vitro inhibitory concentration against Prostaglandin G/H synthase 1 (COX-1) in human whole blood
For assay [2], the target named is T1, Prostaglandin G/H synthase 2 (Homo sapiens, UniProt P35354).
T1 sequence (P35354 whole entry): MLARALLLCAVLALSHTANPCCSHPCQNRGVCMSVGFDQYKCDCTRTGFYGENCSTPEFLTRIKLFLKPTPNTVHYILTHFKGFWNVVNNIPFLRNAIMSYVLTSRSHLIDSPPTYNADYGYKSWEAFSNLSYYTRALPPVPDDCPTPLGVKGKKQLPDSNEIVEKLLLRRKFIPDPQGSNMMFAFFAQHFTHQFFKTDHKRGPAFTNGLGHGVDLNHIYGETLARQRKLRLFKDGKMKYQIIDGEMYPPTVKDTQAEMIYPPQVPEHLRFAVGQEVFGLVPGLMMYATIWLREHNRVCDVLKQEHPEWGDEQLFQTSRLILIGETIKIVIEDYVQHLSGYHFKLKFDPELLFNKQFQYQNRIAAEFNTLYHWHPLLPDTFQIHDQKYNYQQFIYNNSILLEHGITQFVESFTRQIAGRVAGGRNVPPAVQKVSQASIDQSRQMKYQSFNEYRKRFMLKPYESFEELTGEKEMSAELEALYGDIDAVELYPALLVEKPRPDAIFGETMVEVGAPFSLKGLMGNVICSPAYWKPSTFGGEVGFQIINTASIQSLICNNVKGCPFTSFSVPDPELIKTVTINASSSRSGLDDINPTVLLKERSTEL
Description: In vitro inhibitory concentration against Prostaglandin G/H synthase 2 (COX-2) in human whole blood

Assay [3] has as its system Rattus norvegicus. The assay is described as follows: In vivo antiinflammatory potency in rat air pouch model expressed as inhibition of PGE-2 production following oral dosage of 6.1 mg/kg ([…]). It is filed as functional.
The subject of assay [4] is Rattus norvegicus. In words: In vivo antiinflammatory potency in rat air pouch model expressed as inhibition of white blood cell infiltration following oral dosage of 6.1 mg/kg ([…]). It is filed as functional.
Assay [5] is filed under the species Rattus norvegicus. The assay is described as follows: animal or person. To be noted: po, read-out: Inhibition.
Description: In vivo antiinflammatory potency in rat air pouch model expressed as inhibition of white blood cell infiltration following oral dosage of 5.4 mg/kg (15 mmol)
Assay [6] is filed under the species Rattus norvegicus. The assay is described as follows: animal or person. The conditions noted are these: po, read-out: Inhibition. This is another data set of the same source.
Description: In vivo antiinflammatory potency in rat air pouch model expressed as inhibition of PGE-2 production following oral dosage of 5.4 mg/kg (15 mmol)

SMILES strings stand for the structures. A value given as a limit tells only on which side of the number the result lay.

Prostaglandin G/H synthase 1, sequence (P23219 whole entry): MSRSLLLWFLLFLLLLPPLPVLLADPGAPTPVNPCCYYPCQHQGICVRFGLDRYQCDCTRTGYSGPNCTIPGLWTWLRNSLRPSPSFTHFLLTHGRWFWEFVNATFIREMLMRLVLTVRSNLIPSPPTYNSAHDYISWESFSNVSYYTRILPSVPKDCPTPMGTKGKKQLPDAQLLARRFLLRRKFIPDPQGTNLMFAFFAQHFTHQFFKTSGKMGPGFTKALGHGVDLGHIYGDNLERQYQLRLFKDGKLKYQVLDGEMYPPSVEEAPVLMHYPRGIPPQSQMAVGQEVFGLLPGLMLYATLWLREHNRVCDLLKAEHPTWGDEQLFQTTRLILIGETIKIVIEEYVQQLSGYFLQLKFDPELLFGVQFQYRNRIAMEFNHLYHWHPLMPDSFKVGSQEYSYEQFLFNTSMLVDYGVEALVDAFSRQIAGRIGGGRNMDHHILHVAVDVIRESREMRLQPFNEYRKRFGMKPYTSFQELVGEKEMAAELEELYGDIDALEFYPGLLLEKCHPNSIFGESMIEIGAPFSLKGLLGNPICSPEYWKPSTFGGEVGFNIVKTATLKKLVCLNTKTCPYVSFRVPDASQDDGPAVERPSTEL

Turning to `CS(=O)(=O)c1ccc(-c2cc(C(F)(F)F)cnc2C(=O)c2ccccc2)cc1`, the IC50 in assay [1] came out at 14 µM; in assay [2] it was 0.25 µM. The values for the inhibition in vivo at 6.1 mg/kg in assay [3] and in assay [4] were 58.9% and 46.2%, respectively.
As for `Cc1ccc(-c2ncc(Cl)cc2-c2ccc(S(C)(=O)=O)cc2)cn1` [ETORICOXIB], the concentration for half-maximal inhibition (IC50) in assay [1] was greater than 200 µM. For the same compound, the inhibition in vivo at 5.4 mg/kg turned out to be 45% in assay [5] and 61% in assay [6].

The IC50 is the concentration needed to halve the response being measured. Higher therefore signals weaker potency.

These data come from ChEMBL document CHEMBL1144447, “3-[4-(methylsulfonyl)phenyl]-5-(trifluoromethyl)(2-pyridyl) phenyl ketone as a potent and orally active cyclooxygenase-2 selective inhibitor: synthesis and biological evaluation” (J Med Chem, 2005).
